Data from patent US20090238808A1, “Process for the identification of novel enzyme interacting compounds” (priority 2005, published 2009).

Assays:
Assay in all cases: Kinobeads elution with test compound, mouse brain lysate, MS
Assay type in all cases: binding
Details in all cases: kinase released from kinobeads by specific elution
CaMK2a = target: T1, CaMK2a (Mus musculus, UniProt P11798)
T1 construct: […]; from tissue; host or cells: mouse brain
Protocol: (§1) This example illustrates competitive elution of proteins bound to kinobeads with non-modified test compounds (see particularly the fourth aspect of the invention). The kinobeads (as described in example 1) were contacted with mouse brains lysate, bound proteins were eluted with various test compounds and the released proteins were analysed by mass spectrometry.
(§2) The kinobeads were contacted with mouse brain lysate under conditions that allow the binding of the proteins in the lysate to the ligands. The binding conditions were close to physiological by choosing suitable buffer conditions preserving the function of the proteins. After removing non-captured proteins through a gentle washing procedure the bound proteins were contacted with a test compound for protein elution.
(§3) Various test compounds (see section 2.7) were used to release bound proteins following these steps:
(§4) 1. Resuspend beads with bound proteins (section 2.4) in 1×DP buffer/0.2% NP-40 as 1:3 slurry (volume/volume). 2. Transfer 20 μl the 1:3 slurry into MoBiTech columns (equivalent to 5 μl of beads). 3. Place the column into an Eppendorf tube and centrifuge it for 15 seconds at 800 rpm at 4° C. Close columns with lower lid. 4. Add 10 μl elution buffer containing 1.0 mM of the test compound (concentration ranges of 0.1 to 1.0 mM are suitable). As a control use elution buffer containing 2% DMSO or 2% DMF dependent on the solvent used for dissolving the test compound. Close column with upper lid. 5. Incubate for 30 minutes at 4° C. in an Eppendorf incubator at 700 rpm. 6. Open column (first top, then bottom), put column back into siliconized tube (SafeSeal Microcentrifuge Tubes, cat. no 11270, Sorenson BioScience, Inc.). To harvest the eluate centrifuge 2 minutes at 2.000 rpm in table top centrifuge at room temperature. The typical volume of the eluate is approximately 15 μl. 7. Add 5 μl 4× NuPAGE SDS Sample Buffer (Invitrogen, NP0007) containing 100 mM DTT (DTT has to be added just prior to use). 8. Incubate for 30 minutes at 50° C. 9. Add 1/10 volume of 200 mg/ml iodoacetamide, incubate for 30 min at room temperature, protect from light. This reaction leads to the alkylation of cysteines for mass spectrometry. 10. Before loading samples onto the gel, centrifuge samples for 5 minutes at 15.000 rpm in order to remove precipitates. 11. For protein separation apply 10 μl sample to NuPAGE 4-12% Bis-Tris gel (Invitrogen, NPO335). 2.6 Preparation of Stock Solutions used in this Protocol
(§5) Search criteria varied depending on which mass spectrometer was used for the analysis.

JNK3 = target: T2, JNK3 (Mus musculus, UniProt Q61831)
T2 construct: from tissue; host or cells: mouse brain
T2 sequence (Q61831 whole entry): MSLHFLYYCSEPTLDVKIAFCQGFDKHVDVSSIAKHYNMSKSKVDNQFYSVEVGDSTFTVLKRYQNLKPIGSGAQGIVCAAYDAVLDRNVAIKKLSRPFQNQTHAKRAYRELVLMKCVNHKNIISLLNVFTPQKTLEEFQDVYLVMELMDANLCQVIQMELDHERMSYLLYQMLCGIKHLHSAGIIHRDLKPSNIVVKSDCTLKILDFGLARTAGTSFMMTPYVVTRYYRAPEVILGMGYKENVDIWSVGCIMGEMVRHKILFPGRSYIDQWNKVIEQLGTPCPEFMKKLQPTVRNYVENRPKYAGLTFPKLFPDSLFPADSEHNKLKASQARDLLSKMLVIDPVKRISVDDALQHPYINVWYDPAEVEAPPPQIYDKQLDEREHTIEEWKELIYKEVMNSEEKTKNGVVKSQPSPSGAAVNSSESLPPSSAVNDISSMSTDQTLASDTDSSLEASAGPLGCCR
Protocol: as §1, §2, §3, §4, §5

CDK5 = CDK5 (Mus musculus, UniProt P49615)
Chain of CDK5 (P49615 whole entry): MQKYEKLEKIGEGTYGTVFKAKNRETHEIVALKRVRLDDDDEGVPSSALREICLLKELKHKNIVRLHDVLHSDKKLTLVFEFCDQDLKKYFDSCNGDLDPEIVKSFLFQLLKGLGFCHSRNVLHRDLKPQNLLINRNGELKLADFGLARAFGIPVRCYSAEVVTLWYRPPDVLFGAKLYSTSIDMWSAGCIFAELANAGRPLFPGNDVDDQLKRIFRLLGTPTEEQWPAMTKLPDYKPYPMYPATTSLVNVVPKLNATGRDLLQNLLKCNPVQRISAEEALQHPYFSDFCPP
Protocol: as §1, §2, §3, §4, §5

FAK = FAK (Mus musculus, UniProt P34152)
Chain of FAK (P34152 whole entry): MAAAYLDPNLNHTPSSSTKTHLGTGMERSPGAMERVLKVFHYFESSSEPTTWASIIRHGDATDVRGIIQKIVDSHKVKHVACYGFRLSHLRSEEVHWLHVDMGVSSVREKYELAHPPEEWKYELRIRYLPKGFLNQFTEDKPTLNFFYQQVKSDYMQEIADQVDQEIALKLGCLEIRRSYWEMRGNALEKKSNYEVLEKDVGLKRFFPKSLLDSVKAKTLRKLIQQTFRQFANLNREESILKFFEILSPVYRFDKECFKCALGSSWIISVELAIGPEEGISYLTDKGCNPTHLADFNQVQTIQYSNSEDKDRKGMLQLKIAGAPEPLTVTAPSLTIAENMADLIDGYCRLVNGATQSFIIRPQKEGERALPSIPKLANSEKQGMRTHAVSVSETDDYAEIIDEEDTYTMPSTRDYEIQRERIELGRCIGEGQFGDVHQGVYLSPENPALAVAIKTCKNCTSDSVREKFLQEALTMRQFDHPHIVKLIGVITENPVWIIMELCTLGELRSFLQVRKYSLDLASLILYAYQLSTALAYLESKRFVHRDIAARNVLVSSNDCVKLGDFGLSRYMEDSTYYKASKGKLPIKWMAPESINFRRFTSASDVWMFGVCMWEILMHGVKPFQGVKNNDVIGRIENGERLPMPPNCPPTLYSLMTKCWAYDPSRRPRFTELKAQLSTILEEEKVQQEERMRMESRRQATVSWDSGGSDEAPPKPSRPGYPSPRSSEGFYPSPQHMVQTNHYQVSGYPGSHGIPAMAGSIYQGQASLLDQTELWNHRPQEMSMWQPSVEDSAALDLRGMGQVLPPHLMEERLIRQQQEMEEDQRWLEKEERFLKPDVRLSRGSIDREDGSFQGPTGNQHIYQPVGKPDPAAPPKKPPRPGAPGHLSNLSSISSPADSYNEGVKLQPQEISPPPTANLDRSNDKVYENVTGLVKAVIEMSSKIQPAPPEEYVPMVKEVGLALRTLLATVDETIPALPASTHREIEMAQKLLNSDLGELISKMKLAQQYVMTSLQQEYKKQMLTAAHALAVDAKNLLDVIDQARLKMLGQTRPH
Protocol: as §1, §2, §3, §4, §5

CaMK2d = target: T3, CaMK2d (Mus musculus, UniProt Q6PHZ2)
T3 construct: […]; from tissue; host or cells: mouse brain
T3 sequence (Q6PHZ2 whole entry): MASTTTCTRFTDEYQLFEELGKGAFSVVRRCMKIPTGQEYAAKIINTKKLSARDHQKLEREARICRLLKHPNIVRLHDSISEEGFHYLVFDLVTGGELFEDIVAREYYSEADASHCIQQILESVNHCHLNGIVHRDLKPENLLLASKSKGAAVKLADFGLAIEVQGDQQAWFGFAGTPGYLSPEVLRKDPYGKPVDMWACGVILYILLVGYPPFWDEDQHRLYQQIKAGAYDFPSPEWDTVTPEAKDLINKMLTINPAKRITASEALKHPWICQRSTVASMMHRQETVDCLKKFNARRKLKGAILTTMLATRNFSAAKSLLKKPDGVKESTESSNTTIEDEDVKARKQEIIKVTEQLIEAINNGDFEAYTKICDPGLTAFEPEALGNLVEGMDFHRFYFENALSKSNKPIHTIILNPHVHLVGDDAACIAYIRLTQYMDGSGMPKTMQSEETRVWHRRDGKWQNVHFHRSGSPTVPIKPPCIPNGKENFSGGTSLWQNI
Protocol: as §1, §2, §3, §4, §5

CSK = CSK (Mus musculus, UniProt P41241)
Chain of CSK (P41241 whole entry): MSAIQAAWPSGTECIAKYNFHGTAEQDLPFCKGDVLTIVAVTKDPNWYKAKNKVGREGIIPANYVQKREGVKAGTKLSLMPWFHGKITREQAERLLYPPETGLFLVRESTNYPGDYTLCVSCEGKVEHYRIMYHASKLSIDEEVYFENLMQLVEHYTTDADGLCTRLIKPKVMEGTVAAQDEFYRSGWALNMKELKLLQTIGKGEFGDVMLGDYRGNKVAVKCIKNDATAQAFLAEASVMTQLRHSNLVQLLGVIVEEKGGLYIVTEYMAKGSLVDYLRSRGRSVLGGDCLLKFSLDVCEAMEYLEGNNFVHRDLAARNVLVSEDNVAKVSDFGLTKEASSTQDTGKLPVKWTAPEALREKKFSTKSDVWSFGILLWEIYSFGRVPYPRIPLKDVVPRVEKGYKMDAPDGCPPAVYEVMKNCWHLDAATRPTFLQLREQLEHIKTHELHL
Protocol: as §1, §2, §3, §4, §5

EphA4 = EphA4 (Mus musculus, UniProt Q03137)
Protocol: as §1, §2, §3, §4, §5

RSK1 (Mus musculus) = tested on: T4, RSK1 (Mus musculus)
T4 construct: from tissue; host or cells: mouse brain
Protocol: as §1, §2, §3, §4, §5

RSK3 = target: T5, RSK3 (Mus musculus, UniProt P18653)
T5 construct: from tissue; host or cells: mouse brain
Protocol: as §1, §2, §3, §4, §5

EphA5 = EphA5 (Mus musculus, UniProt Q60629)
Protocol: as §1, §2, §3, §4, §5

CaMKK2 = CaMKK2 (Mus musculus, UniProt Q8C078)
Chain of CaMKK2 (Q8C078 whole entry): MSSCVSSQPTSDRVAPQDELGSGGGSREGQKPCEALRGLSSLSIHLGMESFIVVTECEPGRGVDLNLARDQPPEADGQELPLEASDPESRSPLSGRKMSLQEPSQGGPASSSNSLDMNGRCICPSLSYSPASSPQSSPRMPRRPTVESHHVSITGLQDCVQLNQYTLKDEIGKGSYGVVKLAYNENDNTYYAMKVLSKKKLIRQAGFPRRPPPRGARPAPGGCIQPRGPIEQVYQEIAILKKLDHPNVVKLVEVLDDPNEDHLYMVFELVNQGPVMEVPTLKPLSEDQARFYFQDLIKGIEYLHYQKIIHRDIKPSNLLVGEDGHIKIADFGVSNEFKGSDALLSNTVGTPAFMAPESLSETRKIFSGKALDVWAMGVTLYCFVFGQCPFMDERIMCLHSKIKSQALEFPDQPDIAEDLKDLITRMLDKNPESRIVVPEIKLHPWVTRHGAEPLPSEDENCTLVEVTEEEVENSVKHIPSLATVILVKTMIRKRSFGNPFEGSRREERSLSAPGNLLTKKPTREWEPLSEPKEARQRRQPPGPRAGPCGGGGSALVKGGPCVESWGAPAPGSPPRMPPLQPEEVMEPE
Protocol: as §1, §2, §3, §4, §5

JNK1 = target: T6, JNK1 (Mus musculus, UniProt Q91Y86)
T6 construct: from tissue; host or cells: mouse brain
Protocol: as §1, §2, §3, §4, §5

PYK2 = target: T7, PYK2 (Mus musculus, UniProt Q9QVP9)
T7 construct: from tissue; host or cells: mouse brain
Protocol: as §1, §2, §3, §4, §5

FYN = target: T8, FYN (Mus musculus, UniProt P39688)
T8 construct: […]; from tissue; host or cells: mouse brain
T8 sequence (P39688 whole entry): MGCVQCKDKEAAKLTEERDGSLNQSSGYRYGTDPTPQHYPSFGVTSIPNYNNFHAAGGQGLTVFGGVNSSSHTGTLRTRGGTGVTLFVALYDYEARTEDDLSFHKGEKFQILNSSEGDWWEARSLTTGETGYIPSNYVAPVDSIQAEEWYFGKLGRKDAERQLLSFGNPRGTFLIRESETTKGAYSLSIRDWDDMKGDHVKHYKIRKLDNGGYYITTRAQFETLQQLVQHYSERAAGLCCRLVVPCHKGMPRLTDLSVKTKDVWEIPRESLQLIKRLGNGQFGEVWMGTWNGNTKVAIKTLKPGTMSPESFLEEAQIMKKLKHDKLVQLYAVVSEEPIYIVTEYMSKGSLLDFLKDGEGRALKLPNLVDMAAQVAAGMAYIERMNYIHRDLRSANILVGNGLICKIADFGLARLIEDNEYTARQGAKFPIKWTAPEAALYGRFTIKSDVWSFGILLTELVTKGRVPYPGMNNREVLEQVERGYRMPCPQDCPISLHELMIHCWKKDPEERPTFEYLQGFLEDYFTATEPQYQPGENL
Protocol: as §1, §2, §3, §4, §5

GSK3B = target: T9, GSK3B (Mus musculus, UniProt Q9WV60)
T9 construct: from tissue; host or cells: mouse brain
Description: (§6) This example illustrates competitive elution of proteins bound to kinobeads with non-modified test compounds (see particularly the fourth aspect of the invention).
as §2, §3
as §4, with “Open column (first top, then bottom), put column back into siliconized tube (SafeSeal Microcentrifuge Tubes, cat. no 11270, Sorenson BioScience, Inc.).” left out, “For protein separation apply 10 μl sample to NuPAGE 4-12% Bis-Tris gel (Invitrogen, NPO335).” left out
as §5

CaMK2g = CaMK2g (Mus musculus, UniProt Q923T9)
Chain of CaMK2g (Q923T9 whole entry): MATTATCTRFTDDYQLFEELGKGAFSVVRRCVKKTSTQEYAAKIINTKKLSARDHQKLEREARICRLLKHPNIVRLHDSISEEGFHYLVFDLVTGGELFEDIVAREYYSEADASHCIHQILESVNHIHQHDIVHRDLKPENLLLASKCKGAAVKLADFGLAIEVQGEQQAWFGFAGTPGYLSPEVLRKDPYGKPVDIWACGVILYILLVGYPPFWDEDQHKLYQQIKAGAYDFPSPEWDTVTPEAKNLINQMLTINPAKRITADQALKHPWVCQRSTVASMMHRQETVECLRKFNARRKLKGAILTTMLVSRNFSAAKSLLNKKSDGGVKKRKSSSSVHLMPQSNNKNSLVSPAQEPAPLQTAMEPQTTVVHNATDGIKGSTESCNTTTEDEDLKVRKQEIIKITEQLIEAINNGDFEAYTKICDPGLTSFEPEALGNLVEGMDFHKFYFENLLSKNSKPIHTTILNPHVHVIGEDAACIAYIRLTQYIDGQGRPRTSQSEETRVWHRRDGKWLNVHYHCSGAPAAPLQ
Description: as §6, §2, §3
as §4, with “Open column (first top, then bottom), put column back into siliconized tube (SafeSeal Microcentrifuge Tubes, cat. no 11270, Sorenson BioScience, Inc.).” left out, “For protein separation apply 10 μl sample to NuPAGE 4-12% Bis-Tris gel (Invitrogen, NPO335).” left out
as §5

T1 sequence (P11798 whole entry): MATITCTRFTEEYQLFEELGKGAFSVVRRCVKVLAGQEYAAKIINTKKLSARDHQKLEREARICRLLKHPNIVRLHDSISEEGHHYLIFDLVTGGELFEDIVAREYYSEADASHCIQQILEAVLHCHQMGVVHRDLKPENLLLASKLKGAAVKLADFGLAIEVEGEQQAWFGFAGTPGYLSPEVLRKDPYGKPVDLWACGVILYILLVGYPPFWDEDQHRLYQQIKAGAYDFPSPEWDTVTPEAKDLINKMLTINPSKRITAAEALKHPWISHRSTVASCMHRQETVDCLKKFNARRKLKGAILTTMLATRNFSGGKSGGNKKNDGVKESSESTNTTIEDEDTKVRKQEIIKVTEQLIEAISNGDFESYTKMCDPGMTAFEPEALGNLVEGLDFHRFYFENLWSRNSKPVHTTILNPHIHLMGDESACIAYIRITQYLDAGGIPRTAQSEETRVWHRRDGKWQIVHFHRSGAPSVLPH

Compound | mass spectrometry score, CaMK2a (CaMK2a) | number of identified peptides, CaMK2a (CaMK2a) | mass spectrometry score, JNK3 (JNK3) | number of identified peptides, JNK3 (JNK3) | mass spectrometry score, CDK5 (CDK5) | number of identified peptides, CDK5 (CDK5) | mass spectrometry score, FAK (FAK) | mass spectrometry score, CaMK2d (CaMK2d) | number of identified peptides, CaMK2d (CaMK2d) | mass spectrometry score, EphA4 (EphA4) | number of identified peptides, EphA4 (EphA4) | mass spectrometry score, RSK1 (RSK1 (Mus musculus)) | number of identified peptides, RSK1 (RSK1 (Mus musculus)) | mass spectrometry score, CaMKK2 (CaMKK2) | number of identified peptides, CaMKK2 (CaMKK2) | mass spectrometry score, JNK1 (JNK1) | number of identified peptides, JNK1 (JNK1) | mass spectrometry score, PYK2 (PYK2) | number of identified peptides, PYK2 (PYK2) | number of identified peptides, GSK3B (GSK3B) | also measured
Cn1c(=O)c(-c2c(Cl)cccc2Cl)cc2cnc(Nc3ccc(CN)cc3)cc21 [CZC7324] | 513 | 11 | 782 | 49 | 462 | 11 | 322 | 328 | 7 | 1233 | 32 | 626 | 19 | 101 | 3 | 448 | 17 | 1401 | 42 | 19 | number of identified peptides, FAK (FAK): 10; mass spectrometry score, CSK (CSK): 809; number of identified peptides, CSK (CSK): 19; number of identified peptides, RSK3 (RSK3): 12; mass spectrometry score, EphA5 (EphA5): 144; number of identified peptides, EphA5 (EphA5): 3; mass spectrometry score, FYN (FYN): 279; number of identified peptides, FYN (FYN): 6; mass spectrometry score, GSK3B (GSK3B): 789
NCc1ccc(Nc2ncc(F)c(Nc3ccccc3)n2)cc1 [CZC00008004] | 966 | 43 | 642 | 23 | 794 | 27 | 257 | 444 | 11 | 138 | 3 | 312 | 9 | 522 | 12 | 590 | 48 | 1228 | 58 | 26 | number of identified peptides, FAK (FAK): 8; mass spectrometry score, CaMK2g (CaMK2g): 527; number of identified peptides, CaMK2g (CaMK2g): 27; mass spectrometry score, GSK3B (GSK3B): 881
CNC1CC2OC(C)(C1OC)n1c3ccccc3c3c4c(c5c6ccccc6n2c5c31)C(=O)NC4 (stereo not drawn) [CZC9280] | 1027 | 69 | 363 | 10 | 861 | 43 | – | 822 | 40 | 332 | 11 | 1634 | 47 | 282 | 10 | 457 | 16 | 1978 | 82 | 59 | mass spectrometry score, CSK (CSK): 307; number of identified peptides, CSK (CSK): 8; number of identified peptides, RSK3 (RSK3): 21; mass spectrometry score, FYN (FYN): 314; number of identified peptides, FYN (FYN): 6; number of identified peptides, CaMK2g (CaMK2g): 25
CC(C)[C@H](CO)Nc1nc(Nc2ccc(C(=O)O)c(Cl)c2)c2ncn(C(C)C)c2n1 [Purvalanol B, reference compound] | 978 | 27 | 284 | 7 | 1086 | 41 | 269 | 473 | 12 | 1702 | 37 | 1177 | 32 | 465 | 9 | 311 | 10 | 1909 | 48 | 30 | number of identified peptides, FAK (FAK): 6; mass spectrometry score, CSK (CSK): 492; number of identified peptides, CSK (CSK): 12; number of identified peptides, RSK3 (RSK3): 11; mass spectrometry score, EphA5 (EphA5): 330; number of identified peptides, EphA5 (EphA5): 14; mass spectrometry score, FYN (FYN): 268; number of identified peptides, FYN (FYN): 6; mass spectrometry score, GSK3B (GSK3B): 1037
CCCCCCCCCCCCOS(=O)(=O)[O-].[Na+] [SDS] | 786 | 74 | 447 | 27 | 604 | 21 | 160 | 434 | 36 | 727 | 33 | 825 | 45 | 338 | 10 | 389 | 47 | 809 | 39 | 72 | number of identified peptides, FAK (FAK): 6; mass spectrometry score, CSK (CSK): 365; number of identified peptides, CSK (CSK): 15; number of identified peptides, RSK3 (RSK3): 6; mass spectrometry score, EphA5 (EphA5): 246; number of identified peptides, EphA5 (EphA5): 9; mass spectrometry score, FYN (FYN): 407; number of identified peptides, FYN (FYN): 17; mass spectrometry score, CaMK2g (CaMK2g): 379; number of identified peptides, CaMK2g (CaMK2g): 42; mass spectrometry score, GSK3B (GSK3B): 763
